In ChEMBL document CHEMBL1123587, “Nucleosides. 139. Synthesis and anticytomegalovirus and antiherpes simplex virus activity of 5'-modified analogues of 2'-fluoroarabinosylpyrimidine nucleosides” (1987) one finds EC50, ED90 and IC50 data, which are given here for 13 compounds.

What all share (assay type): functional
Assay [1] deals with Human alphaherpesvirus 1. In words: Effective concentration required to inhibit replication of strain F of HSV-1 by 50%. The conditions noted are these: read-out: ED50 (the source's name).
In assay [2] the test system is Human alphaherpesvirus 1. Description: Effective concentration required to inhibit replication of strain F of HSV-1 by 90%.
The test system of another assay is Vero. Description: Compound was evaluated for cytotoxicity in rapidly dividing Vero cells. The conditions noted are these: Chlorocebus sabaeus, read-out: ID50 (the source's name).
Assay [3] deals with Human alphaherpesvirus 2. Description: Effective concentration required to inhibit replication of strain G of HSV-2 by 90%.
Assay [4] relates to Human alphaherpesvirus 2. In words: Effective concentration required to inhibit replication of strain G of HSV-2 by 50%. The conditions noted are these: read-out: ED50 (the source's name).

As for `Cc1cn([C@@H]2O[C@H](CO)C(O)C2F)c(=O)[nH]c1=O` (single isomer, unassigned) [5-METHYL-2'-FLUOROARAURACIL], the figures for the EC50 with Human alphaherpesvirus 1 [1] and in the assay on Human alphaherpesvirus 2 [4] were 0.018 µM and 0.023 µM, respectively. The ED90 with Human alphaherpesvirus 1 [2] was 0.047 µM; in the assay on Human alphaherpesvirus 2 [3] it was 0.09 µM. Further, the IC50 in the assay with Vero is 2.8 µM.

Turning to `NCC1O[C@@H](n2cc(I)c(=O)[nH]c2=O)[C@H](F)[C@H]1O` (stereo not given in full), the EC50 in the assay with Human alphaherpesvirus 1 [1] is 108 µM; in the assay on Human alphaherpesvirus 2 [4], above 200 µM. Moreover, the ED90 in the assay on Human alphaherpesvirus 1 [2] and with Human alphaherpesvirus 2 [3] was above 200 µM each time. Besides, the IC50 in the assay on Vero is above 200 µM.

With `CC1O[C@@H](n2cc(I)c(=O)[nH]c2=O)[C@H](F)[C@H]1O` (stereo not given in full), the EC50 with Human alphaherpesvirus 1 [1] came out at 220 µM; in the assay with Human alphaherpesvirus 2 [4], 135 µM. Besides, the figures for the ED90 in the assay with Human alphaherpesvirus 1 [2] and with Human alphaherpesvirus 2 [3] were 384 µM and 290 µM, respectively. In addition, the IC50 with Vero is above 400 µM.

With `Cc1cn([C@@H]2OC(CN)[C@H](O)[C@H]2F)c(=O)[nH]c1=O` (stereo not given in full), the EC50 in the assay with Human alphaherpesvirus 1 [1] was 0.78 µM; with Human alphaherpesvirus 2 [4], 5.6 µM. Besides, the figures for the ED90 in the assay on Human alphaherpesvirus 1 [2] and with Human alphaherpesvirus 2 [3] were 3 µM and 14 µM, respectively. Further, the IC50 in the assay with Vero was determined as 6.7 µM.

Regarding `NCC1O[C@@H](n2cc(I)c(N)nc2=O)[C@H](F)[C@H]1O` (stereo not given in full), the results for the EC50 with Human alphaherpesvirus 1 [1] and in the assay with Human alphaherpesvirus 2 [4] were 202 µM and above 400 µM, respectively. Also, the figures for the ED90 in the assay on Human alphaherpesvirus 1 [2] and in the assay with Human alphaherpesvirus 2 [3] were 480 µM and above 400 µM, respectively. For the same compound, the IC50 in the assay with Vero was above 400 µM.

With `CC1O[C@@H](n2ccc(=O)[nH]c2=O)[C@H](F)[C@H]1O` (stereo not given in full), the values for the EC50 with Human alphaherpesvirus 1 [1] and in the assay on Human alphaherpesvirus 2 [4] were 346 µM and 224 µM, respectively. The figures for the ED90 in the assay on Human alphaherpesvirus 1 [2] and in the assay with Human alphaherpesvirus 2 [3] were 538 µM and 379 µM, respectively. Besides, the IC50 in the assay with Vero was determined as 333 µM.

As for `CC1O[C@@H](n2ccc(N)nc2=O)[C@H](F)[C@H]1O` (stereo not given in full), the EC50 in the assay on Human alphaherpesvirus 1 [1] is 13.3 µM; with Human alphaherpesvirus 2 [4], 17.1 µM. Moreover, the figures for the ED90 in the assay on Human alphaherpesvirus 1 [2] and in the assay on Human alphaherpesvirus 2 [3] were 35.9 µM and 45.5 µM, respectively. Besides, in the assay on Vero, the IC50 amounted to 225 µM.

With `O=c1[nH]c(=O)n([C@@H]2O[C@H](CO)C(O)C2F)cc1I` (single isomer, unassigned) [FIALURIDINE], the EC50 in the assay on Human alphaherpesvirus 1 [1] came out at 0.012 µM; in the assay on Human alphaherpesvirus 2 [4] it was 0.01 µM. Besides, the values for the ED90 in the assay on Human alphaherpesvirus 1 [2] and in the assay on Human alphaherpesvirus 2 [3] were 0.041 µM and 0.045 µM, respectively. In addition, in the assay on Vero, the IC50 was 10.3 µM.

For the compound `Nc1nc(=O)n([C@@H]2OC(CS)[C@H](O)[C@H]2F)cc1I` (stereo not given in full), the EC50 was 216 µM in the assay on Human alphaherpesvirus 1 [1] and above 200 µM with Human alphaherpesvirus 2 [4]. Moreover, the ED90 in the assay on Human alphaherpesvirus 1 [2] is 444 µM; in the assay on Human alphaherpesvirus 2 [3], above 200 µM. In addition, in the assay with Vero, the IC50 amounted to 337 µM.

`CC1O[C@@H](n2cc(I)c(N)nc2=O)[C@H](F)[C@H]1O` (stereo not given in full): the EC50 in the assay with Human alphaherpesvirus 1 [1] and in the assay on Human alphaherpesvirus 2 [4] was above 400 µM throughout. In addition, the ED90 in the assay with Human alphaherpesvirus 1 [2] and with Human alphaherpesvirus 2 [3] was above 400 µM throughout. Also, the IC50 in the assay with Vero was above 400 µM.

As to `Cc1cn([C@@H]2OC(CS)[C@H](O)[C@H]2F)c(=O)[nH]c1=O` (stereo not given in full), the EC50 with Human alphaherpesvirus 1 [1] and in the assay with Human alphaherpesvirus 2 [4] was above 200 µM each time. Also, the ED90 in the assay with Human alphaherpesvirus 1 [2] and in the assay with Human alphaherpesvirus 2 [3] was above 200 µM each time. The IC50 with Vero is 314 µM.

For `Cc1cn([C@@H]2OC(C)[C@H](O)[C@H]2F)c(=O)[nH]c1=O` (stereo not given in full), the results for the EC50 in the assay with Human alphaherpesvirus 1 [1] and in the assay on Human alphaherpesvirus 2 [4] were 31.1 µM and 173 µM, respectively. Further, the results for the ED90 in the assay on Human alphaherpesvirus 1 [2] and with Human alphaherpesvirus 2 [3] were 298 µM and 493 µM, respectively. For the same compound, the IC50 in the assay with Vero was determined as 214 µM.

As to `Nc1nc(=O)n([C@@H]2O[C@H](CO)C(O)C2F)cc1I` (single isomer, unassigned) [FIACITABINE], the results for the EC50 in the assay with Human alphaherpesvirus 1 [1] and with Human alphaherpesvirus 2 [4] were 0.023 µM and 0.03 µM, respectively. Also, the ED90 with Human alphaherpesvirus 1 [2] worked out at 0.048 µM; in the assay with Human alphaherpesvirus 2 [3], 0.08 µM. The IC50 in the assay on Vero is 21.7 µM.
